One test has as its system corn rust. Briefly: protectant activity in vivo against corn rust. The note with it: Zea mays, 168 h; for pest or weed control at 6.25 µg/mL: read-out: control effect against corn rust (%), 6.25 mg/L; for pest or weed control at 6.25 µg/mL / pest or weed control at 25 µg/mL / pest or weed control at 100 µg/mL / pest or weed control at 400 µg/mL: protectant activity; for pest or weed control at 25 µg/mL: read-out: control effect against corn rust (%), 25 mg/L; for pest or weed control at 100 µg/mL: read-out: control effect against corn rust (%), 100 mg/L; for pest or weed control at 400 µg/mL: read-out: control effect against corn rust (%), 400 mg/L.

The next test relates to cucumber gray mold. Briefly: fungicidal activity in vitro (inhibition rate) against cucumber gray mold. Type of test: cell-based. The note with it: read-out: inhibition rate against cucumber gray mold.
For the next test, the system named is wheat powdery mildew. Briefly: protectant activity in vivo against wheat powdery mildew. The note with it: Triticum aestivum, 168 h; for pest or weed control at 100 µg/mL: read-out: control effect against wheat powdery mildew (%), 100 mg/L; for pest or weed control at 400 µg/mL: read-out: control effect against wheat powdery mildew (%), 400 mg/L.
A further test deals with carmine spider mite. Kind of test: bioactivity test against carmine spider mite, airbrush spray. In kind it is in vivo. The note with it: for pest or weed control at 10 µg/mL / pest or weed control at 100 µg/mL / pest or weed control at 600 µg/mL: read-out: Insecticidal activity against carmine spider mite (% ). Put shortly: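 Broadbean seedlings infested with adult mites were sprayed with compound (acetone/methanol stock diluted in 0.1% Tween 80 water) by airbrush at 0.7 kg/cm^2, 0.5 ml. Three replicates were run. Mortality was scored after 72 hrs.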

In the next test the test system is armyworm. Briefly: bioactivity test against armyworm, airbrush spray. Type of test: in vivo. The note with it: 72 h; for pest or weed control at 600 µg/mL: 600 mg/L.
The subject of test [1] is Green peach aphids (Myzus Persicae Sulzer). Briefly: bioactivity test against green peach aphid, airbrush foliar spray. In kind it is in vivo. Particulars: Myzus persicae, foliar, 48 h. Put shortly: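 Aphids (15-30 per cabbage leaf disc) on moist filter paper were airbrush-sprayed at 10 psi, 0.5 mL, with compound from acetone:methanol (1:1) diluted in water with 0.1% tween 80. Held at 25±1 C, 60±5% RH; survivors counted after 48 hrs to give death rates.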

For a further test, the system named is Diamond back moth. Kind of test: insecticidal activity against diamond back moth, airbrush spray. Type of test: in vivo. The note with it: 72 h; for pest or weed control at 600 µg/mL: 600 mg/L. Put shortly:
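Airbrush leaf-disc spray test: both faces of 2 cm cabbage discs received 0.5 ml of test solution at 0.7 kg/cm^2. Solutions were made in acetone:methanol (1:1) and brought to concentration with 0.1% Tween 80 in water. Ten second-instar larvae per disc, triplicates, were held at 25° C and 60˜70% R.H., with mortality recorded at 72 hrs.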

A further test has as its system cucumber downy mildew. Kind of test: protectant activity in vivo against cucumber downy mildew. Particulars: Cucumis sativus, 168 h; for pest or weed control at 25 µg/mL: read-out: control effect against cucumber downy mildew (%), 25 mg/L; for pest or weed control at 50 µg/mL: read-out: control effect against cucumber downy mildew (%), 50 mg/L; for pest or weed control at 100 µg/mL: read-out: control effect against cucumber downy mildew (%), 100 mg/L.

A further test relates to rice blast. Briefly: microbe, parasite or virus in culture. In kind it is cell-based. Particulars: Pyricularia oryzae, read-out: inhibition rate against rice blast, 25 ppm, in vitro.
[2] abbreviates: Tetranychus cinnabarinus, 72 h, 10 mg/L, contrastive test.
The mark [3] stands for this setting: Tetranychus cinnabarinus, 72 h, 100 mg/L, contrastive test.
[4] abbreviates: Tetranychus cinnabarinus, 72 h, 600 mg/L, contrastive test.
Where [5] appears, read: 10 mg/L, contrastive test, read-out: Insecticidal activity against peach aphid (%).
The mark [6] stands for this setting: 100 mg/L, contrastive test, read-out: Insecticidal activity against peach aphid (%).
Setting [7] is: 600 mg/L, contrastive test, read-out: Insecticidal activity against peach aphid (%).
Setting [8] is: read-out: Insecticidal activity against armyworm (%).
[9] abbreviates: read-out: control effect against cucumber downy mildew (%), 400 mg/L, protectant activity.
Setting [10] is: read-out: Insecticidal activity against peach aphid (%).

As usually defined, the inhibition is the share of the control response that was lost under treatment.

Like-named read-outs stand apart in the source and are kept apart here.

On to `CC(Cl)c1ncnc(NCCc2ccc(Oc3ccc(C(F)(F)F)cn3)cc2)c1Cl` (centres unmarked) [CK24, reference compound], for which, in the test on corn rust, the pest or weed control at 6.25 µg/mL came out at 0%. Besides, the pest or weed control at 25 µg/mL in the test with corn rust turned out to be 20%. Moreover, the pest or weed control at 100 µg/mL in the test with corn rust is 50%; with wheat powdery mildew (protectant activity), 0%; in the test with carmine spider mite (setting [3]) it was 100%; in test [1] (setting [6]) it was 100%. In addition, the values for the pest or weed control at 400 µg/mL with corn rust and in the test with wheat powdery mildew (protectant activity) were 100% and 0%, respectively. Also, the inhibition at 25 ppm with cucumber gray mold (25 ppm, in vitro) is less than 50%. The “Insecticidal activity against carmine spider mite (% )” value with carmine spider mite (2.5 mg/L) is listed as 5%; in the test on carmine spider mite (5 mg/L), 15%. The pest or weed control at 10 µg/mL in the test on carmine spider mite (setting [2]) came out at 85%; in the test on armyworm (10 mg/L, read-out: Insecticidal activity against armyworm (%)), 0%; in [1] (setting [5]) it was 89%. Moreover, the pest or weed control at 600 µg/mL (in the test with carmine spider mite (setting [4]); in [1] (setting [7])) was 100% in each case. Moreover, the pest or weed control at 2.5 µg/mL in [1] (2.5 mg/L, contrastive test, read-out: Insecticidal activity against peach aphid (%)) turned out to be 0%. Besides, in test [1] (5 mg/L, contrastive test, read-out: Insecticidal activity against peach aphid (%)), the pest or weed control at 5 µg/mL was found to be 28%.
Regarding `Cc1ncnc(NCc2ccc(Oc3ncc(Cl)cc3Cl)cc2)c1Cl` [CK37, reference compound], the pest or weed control at 600 µg/mL with Diamond back moth was determined as 0%; in the test on carmine spider mite (setting [4]), 0%; in the test on armyworm (setting [8]), 0%; in test [1] (setting [7]), 100%. Besides, the values for the pest or weed control at 400 µg/mL in the test on corn rust, with wheat powdery mildew (protectant activity) and with cucumber downy mildew (setting [9]) were 0%, 0% and 100%, respectively. Moreover, the pest or weed control at 10 µg/mL in test [1] (setting [5]) is 0%. For the same compound, the pest or weed control at 100 µg/mL was determined as 16% in test [1] (setting [6]) and 20% in the test on cucumber downy mildew (protectant activity). Besides, the pest or weed control at 25 µg/mL in the test with cucumber downy mildew (protectant activity) came to 0%. In the test on cucumber downy mildew (protectant activity), the pest or weed control at 50 µg/mL came to 10%. The inhibition at 25 ppm in the test on rice blast is less than 50%.
In the case of `CC(Cl)c1ncnc(NCc2ccc(Oc3ccc(C(F)(F)F)cn3)cc2)c1Cl` (centres unmarked) [CK43, reference compound], the pest or weed control at 600 µg/mL came to 0% in the test on Diamond back moth, 74% in the test on carmine spider mite (setting [4]), 0% in the test on armyworm (setting [8]) and 0% in test [1] (setting [7]). Besides, the pest or weed control at 400 µg/mL in the test on corn rust came out at 85%; in the test with wheat powdery mildew (protectant activity), 20%; in the test with cucumber downy mildew (setting [9]), 100%. Besides, the pest or weed control at 10 µg/mL in the test with carmine spider mite (setting [2]) stood at 16%. Further, the pest or weed control at 100 µg/mL in the test on carmine spider mite (setting [3]) was determined as 29%; in the test on cucumber downy mildew (protectant activity), 40%. The pest or weed control at 25 µg/mL in the test on cucumber downy mildew (protectant activity) was found to be 0%. Besides, in the test on cucumber downy mildew (protectant activity), the pest or weed control at 50 µg/mL came out at 20%. In addition, in the test with rice blast, the inhibition at 25 ppm is less than 50%.
In the case of `CCc1ncnc(NCc2ccc(Oc3ccc(C(F)(F)F)cc3)cc2)c1Cl` [CK54, reference compound], the pest or weed control at 6.25 µg/mL in the test with corn rust stood at 0%. Moreover, the pest or weed control at 25 µg/mL in the test with corn rust was 30%; in the test with cucumber downy mildew (protectant activity), 65%. Moreover, the pest or weed control at 100 µg/mL came out at 60% with corn rust, 100% in test [1] (setting [6]) and 90% with cucumber downy mildew (protectant activity). The pest or weed control at 400 µg/mL in the test on corn rust and in the test on cucumber downy mildew (setting [9]) was 100% in each case. The inhibition at 25 ppm with cucumber gray mold (25 ppm, in vitro) was 0%. Besides, the pest or weed control at 600 µg/mL is 67% in the test on armyworm (setting [8]) and 100% in test [1] (setting [7]). In addition, in [1] (setting [5]), the pest or weed control at 10 µg/mL is 34%. Further, the pest or weed control at 50 µg/mL with cucumber downy mildew (protectant activity) is 80%.
Take `CC(Cl)c1ncnc(NCCc2ccc(Oc3ccc(Cl)nn3)cc2)c1Cl` (centres unmarked) [CK62, reference compound]: the inhibition at 25 ppm in the test on cucumber gray mold (25 ppm, in vitro) is less than 50%. Moreover, the pest or weed control at 600 µg/mL in the test with carmine spider mite (setting [4]) stood at 0%. The pest or weed control at 400 µg/mL with cucumber downy mildew (setting [9]) was 80%.
In the case of `COc1cc(CCNc2ncnc(C(F)F)c2Cl)ccc1Oc1ccc(Cl)cc1` [II-10583], the pest or weed control at 600 ppm in the test on Diamond back moth (600 ppm, mortality after 72 hrs, read-out: control (test results against diamond back moth)) is 100%; in the test on carmine spider mite (Tetranychus cinnabarinus, 72 h, 600 ppm, mortality after 72 hrs), 100%; in the test on armyworm (600 ppm, mortality after 72 h), 100%; in [1] (600 ppm, death rate after 48 hrs), 100%. The pest or weed control at 25 ppm with corn rust (read-out: protectant activity against corn rust in vivo, 25 ppm) was 80 to 99%; in the test on wheat powdery mildew (read-out: protectant activity against wheat powdery mildew in vivo, 25 ppm) it was 100%; with cucumber downy mildew (read-out: protectant activity against cucumber downy mildew in vivo, 25 ppm), 80 to 99%. Further, the pest or weed control at 100 ppm with corn rust (read-out: protectant activity against corn rust in vivo, 100 ppm) worked out at 100%; in the test with wheat powdery mildew (read-out: protectant activity against wheat powdery mildew in vivo, 100 ppm), 100%; in [1] (100 ppm, death rate after 48 hrs) it was 100%; in the test on cucumber downy mildew (read-out: protectant activity against cucumber downy mildew in vivo, 100 ppm) it was 100%. Besides, the pest or weed control at 400 ppm was found to be 100% with corn rust (read-out: protectant activity against corn rust in vivo, 400 ppm); 100% in the test on wheat powdery mildew (read-out: protectant activity against wheat powdery mildew in vivo, 400 ppm); 100% in the test on cucumber downy mildew (read-out: protectant activity against cucumber downy mildew in vivo, 400 ppm). The pest or weed control at 6.25 µg/mL came out at 100% with wheat powdery mildew (read-out: control effect against wheat powdery mildew (%), 6.25 mg/L, protectant activity) and 95% with cucumber downy mildew (read-out: control effect against cucumber downy mildew (%), 6.25 mg/L, protectant activity). The pest or weed control at 25 µg/mL in the test on wheat powdery mildew (read-out: control effect against wheat powdery mildew (%), 25 mg/L, protectant activity) came to 100%; with cucumber downy mildew (protectant activity), 95%. Besides, the pest or weed control at 100 µg/mL (in the test on wheat powdery mildew (protectant activity); in test [1] (setting [6]); in the test with cucumber downy mildew (protectant activity)) was 100% each time. Besides, the pest or weed control at 400 µg/mL in the test on wheat powdery mildew (protectant activity) and with cucumber downy mildew (setting [9]) was 100% in each case. The pest or weed control at 6.25 ppm with wheat powdery mildew (read-out: protectant activity against wheat powdery mildew in vivo, 6.25 ppm) was 100%; in the test on cucumber downy mildew (read-out: protectant activity against cucumber downy mildew in vivo, 6.25 ppm), 80 to 99%. In addition, the pest or weed control at 10 µg/mL in test [1] (setting [5]) came to 100%. The pest or weed control at 600 µg/mL in test [1] (setting [7]) came out at 100%. The pest or weed control at 10 ppm in test [1] (10 ppm, death rate after 48 hrs) turned out to be 100%. In the test on cucumber downy mildew (read-out: control effect against cucumber downy mildew (%), 12.5 mg/L, protectant activity), the pest or weed control at 12.5 µg/mL is 95%. For the same compound, in the test with cucumber downy mildew (protectant activity), the pest or weed control at 50 µg/mL worked out at 100%. In the test with cucumber downy mildew (read-out: protectant activity against cucumber downy mildew in vivo, 12.5 ppm), the pest or weed control at 12.5 ppm was in the range of 80 to 99%. In the test with cucumber downy mildew (read-out: protectant activity against cucumber downy mildew in vivo, 50 ppm), the pest or weed control at 50 ppm was 80 to 99%. Also, the inhibition at 25 ppm in the test with rice blast was 80 to 99%.
For `CC(F)c1ncnc(NCCc2ccc(OC(F)(F)F)cc2)c1Cl` (centres unmarked) [flufenerim, reference compound], in the test on cucumber gray mold, the inhibition at 25 ppm is 0%. For the same compound, in the test with carmine spider mite (Tetranychus cinnabarinus, 72 h), the pest or weed control at 10 µg/mL stood at 72%, the pest or weed control at 100 µg/mL was determined as 100% and the pest or weed control at 600 µg/mL is 100%. In [1] (setting [10]), the pest or weed control at 1.25 µg/mL was 37%, the pest or weed control at 2.5 µg/mL came out at 90%, the pest or weed control at 5 µg/mL was determined as 100% and the pest or weed control at 10 µg/mL worked out at 100%. In [1] (setting [10]), the pest or weed control at 100 µg/mL stood at 100% and the pest or weed control at 600 µg/mL is 100%. Besides, the pest or weed control at 400 µg/mL in the test on cucumber downy mildew (read-out: control effect against cucumber downy mildew (%)) amounted to 0%.

The values are drawn from patent US9770026B2, “Substituted pyrimidine compound and uses thereof” (Shenyang Sinochem Agrochemicals R&D Co., Ltd., priority 2012, dated 2017).
